Source: patent publication US20110002989A1, “METHODS, DOSAGE FORMS AND KITS FOR ADMINISTERING ZIPRASIDONE WITHOUT FOOD” (Pfizer Inc., priority 2008, published 2011)
Counter-ions that a name gives are not always drawn.

Key:
[1] = depending on the dose, healthy volunteers; cited from earlier work
[2] = In vitro dissolution test in 0.01 N HCl simulated gastric buffer pH 2.0 (MDC and AUC90); format: physicochemical; details: for AUC90 / MDC: 200 μgA/mL if all dissolved, pH 2.0, 37° C., 100 rpm; for AUC Enhancement Relative to Control 1: AUC90, pH 2.0 simulated gastric buffer; for AUC Enhancement Relative to Control 1 / MDC Enhancement Relative to Control 1: 37° C.; for MDC Enhancement Relative to Control 1: pH 2.0 simulated gastric buffer
Experimental: An in vitro dissolution test may be performed by adding the test form of ziprasidone to a dissolution test media consisting of a simulated gastric buffer (GB) solution of 0.01 N HCl at pH 2.0.
In such a test, two end-points are assessed: 1) the maximum dissolved drug concentration (MDC) of ziprasidone in the test media, and 2) the area under the concentration versus time curve of dissolved ziprasidone in the in vitro dissolution test. More specifically, in the in vitro use environment, the concentration of dissolved ziprasidone over any 90-minute period from about 0 to about 270 minutes following introduction to the use environment is measured.
An in vitro test to evaluate enhanced ziprasidone dissolution rate in aqueous solution can be conducted by adding with agitation a sufficient quantity of test ziprasidone form to the test medium, such that if all the ziprasidone dissolved, the theoretical concentration of ziprasidone would exceed the equilibrium concentration provided by the control ziprasidone form by a factor of at least 2, and preferably by a factor of at least 10. Performing the test at this concentration will ensure that the MDC of ziprasidone can be determined.
Then, the concentration of dissolved ziprasidone is measured as a function of time by sampling the test medium and plotting ziprasidone concentration in the test medium versus time so that the dissolution rate can be ascertained. The MDC is taken to be the maximum value of dissolved ziprasidone measured over the duration of the test.
During such a test, the concentration of “dissolved drug” should be measured using standard analytical techniques, including high-performance liquid chromatography (HPLC), ultraviolet (UV) absorption, or other standard methods known in the art. When using solution techniques, such as HPLC, the test solution should be either filtered or centrifuged, to avoid large drug particulates that would give an erroneous determination.
“Dissolved drug” is typically taken as that material that either passes a 0.45 μm syringe filter or, alternatively, the material that remains in the supernatant following centrifugation. Filtration can be conducted using a 13 mm, 0.45 μm polyvinylidine difluoride syringe filter sold by Scientific Resources under the trademark TITAN®. Centrifugation is typically carried out in a polypropylene microcentrifuge tube by centrifuging at 13,000 G for 60 seconds. Other similar filtration or centrifugation methods can be employed and useful results obtained. For example, using other types of microfilters may yield values somewhat higher or lower (±10-40%) than that obtained with the filter specified above but will still allow identification of preferred dissolution rate-improved forms.
A specific example of a dissolution test for ascertaining solubility and dissolution rate of a test ziprasidone form is as follows: First, a sufficient amount of the test form is placed into a dissolution flask such that the concentration of ziprasidone would have been 200 μgA/mL if all the ziprasidone dissolved. A simulated GB solution at pH 2.0 is then added and the mixture stirred at a stirred speed of 100 rpm. The test is performed at 37° C. Using UV probes, the concentration of dissolved ziprasidone is then measured over time for at least 90 minutes. The formulation is considered to be a solubility-improved form or dissolution rate-improved form of ziprasidone if it provides at least one of (1) a MDC that is greater than that of the control, (2) an AUC90 that is greater than that of the control, or (3) both (1) and (2). The control formulation, as discussed above, is crystalline ziprasidone HCl monohydrate as is used in the GEODON/ZELDOX™ commercial capsules.
The following test was used to evaluate various ziprasidone formulations. […]

| Molecule | enhanced absorption when given with food [1] | AUC90 [2] [mg·min/mL] | MDC [2] [μgA/mL] | AUC Enhancement Relative to Control 1 [2] [fold] | MDC Enhancement Relative to Control 1 [2] [fold] | AUC90 ([2]; hydrochloride monohydrate) [mg·min/mL] | MDC ([2]; hydrochloride monohydrate) [μgA/mL] |
| --- | --- | --- | --- | --- | --- | --- | --- |
| O=C1Cc2cc(CCN3CCN(c4nsc5ccccc45)CC3)c(Cl)cc2N1 [Ziprasidone, 5-[2-[4-(1,2-benzisothiazol-3-yl)-1-piperazinyl]ethyl]-6-chloro-1,3-dihydro-2H-indol-2-one] | approximately 100% |  |  |  |  |  |  |
| ziprasidone succinate [Example 12] |  | 4.9 | 59 | 3.0 | 2.3 |  |  |
| ziprasidone tartrate [Example 9] |  | 6.1 | 91 | 3.7 | 3.6 |  |  |
| O=C1Cc2cc(CCN3CCN(c4nsc5ccccc45)CC3)c(Cl)cc2N1 [Example 7, ziprasidone free base] |  | 7.0 | 85 | 4.3 | 3.3 |  |  |
| O=C1Cc2cc(CCN3CCN(c4nsc5ccccc45)CC3)c(Cl)cc2N1 [Example 6, ziprasidone mesylate] |  | 9.0 | 140 | 5.5 | 5.5 |  |  |
| ziprasidone tosylate [Example 8] |  | 3.8 | 54 | 2.3 | 2.1 |  |  |
| NC(CC(=O)O)C(=O)O.O=C1Cc2cc(CCN3CCN(c4nsc5ccccc45)CC3)c(Cl)cc2N1 [Example 10, ziprasidone aspartate] |  | 6.1 | 76 | 3.7 | 3.0 |  |  |
| O=C1Cc2cc(CCN3CCN(c4nsc5ccccc45)CC3)c(Cl)cc2N1 [Control 1, ziprasidone hydrochloride monohydrate, reference compound] |  |  |  |  |  | 1.6 | 25 |
| ziprasidone citrate [Example 11] |  | 2.4 | 33 | 1.5 | 1.3 |  |  |
